Source: PubChem BioAssay (NCI)
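1) Cells in 96-well plates. 2) Compound, 48 h, 5 concentrations. 3) Linear interpolation between surrounding doses. 4) Unreached endpoint = highest concentration. TGI: concentration producing complete growth inhibition.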

Experiments:
Experiment in all cases: NCI tumour cell line growth inhibition, 48 h
SF-268 CNS = system: SF-268 CNS
SNB-78 CNS = system: SNB-78 CNS
DLD-1 colon = system: DLD-1 colon
K-562 leukemia = system: K-562 leukemia
DMS 114 small cell lung = system: DMS 114 small cell lung
OVCAR-3 ovarian = system: OVCAR-3 ovarian
KM12 colon = system: KM12 colon
HOP-18 NSCLC = system: HOP-18 NSCLC
MALME-3M melanoma = system: MALME-3M melanoma
M19-MEL melanoma = system: M19-MEL melanoma
XF 498 CNS = system: XF 498 CNS
LXFL 529 NSCLC = system: LXFL 529 NSCLC
DMS 273 small cell lung = system: DMS 273 small cell lung
KM20L2 colon = system: KM20L2 colon
RXF-631 renal = system: RXF-631 renal

SMILES: Cc1c(C(=O)Nc2ccc(Cl)c(C(F)(F)F)c2)oc2cc(O)ccc2/c1=N\NC(N)=S
- TGI (SF-268 CNS): > 100 µM
- TGI (SNB-78 CNS): > 100 µM
- TGI (DLD-1 colon): > 100 µM
- TGI (K-562 leukemia): > 100 µM
- TGI (DMS 114 small cell lung): > 100 µM
- TGI (OVCAR-3 ovarian): > 100 µM
- TGI (KM12 colon): > 100 µM
- TGI (HOP-18 NSCLC): > 100 µM
- TGI (MALME-3M melanoma): > 100 µM
- TGI (M19-MEL melanoma): > 100 µM
- TGI (XF 498 CNS): > 100 µM
- TGI (LXFL 529 NSCLC): > 100 µM
- TGI (DMS 273 small cell lung): > 100 µM
- TGI (KM20L2 colon): > 100 µM

SMILES: Cc1nc2c(s/c(=N\N)n2-c2ccccc2)c(=O)[nH]1
- TGI (SF-268 CNS): > 100 µM
- TGI (SNB-78 CNS): > 100 µM
- TGI (DLD-1 colon): > 100 µM
- TGI (K-562 leukemia): > 100 µM
- TGI (DMS 114 small cell lung): > 100 µM
- TGI (OVCAR-3 ovarian): > 100 µM
- TGI (KM12 colon): > 100 µM
- TGI (MALME-3M melanoma): > 100 µM
- TGI (M19-MEL melanoma): > 100 µM
- TGI (XF 498 CNS): > 100 µM
- TGI (LXFL 529 NSCLC): > 100 µM
- TGI (DMS 273 small cell lung): > 100 µM
- TGI (KM20L2 colon): > 100 µM

SMILES: COc1ccc2c(c1)CC1NC2Cc2ccccc21 (stereo not given)
- TGI (SF-268 CNS): > 100 µM
- TGI (SNB-78 CNS): > 100 µM
- TGI (DLD-1 colon): > 100 µM
- TGI (K-562 leukemia): > 100 µM
- TGI (DMS 114 small cell lung): > 100 µM
- TGI (OVCAR-3 ovarian): > 100 µM
- TGI (KM12 colon): > 100 µM
- TGI (HOP-18 NSCLC): > 100 µM
- TGI (MALME-3M melanoma): > 100 µM
- TGI (M19-MEL melanoma): > 100 µM
- TGI (XF 498 CNS): > 100 µM
- TGI (LXFL 529 NSCLC): > 100 µM
- TGI (KM20L2 colon): > 100 µM

SMILES: CC[N+](CC)(CC)Cc1cn(S(=O)(=O)c2ccccc2)c2ccccc12
- TGI (SF-268 CNS): > 100 µM
- TGI (DLD-1 colon): > 100 µM
- TGI (K-562 leukemia): > 100 µM
- TGI (DMS 114 small cell lung): > 100 µM
- TGI (OVCAR-3 ovarian): > 100 µM
- TGI (KM12 colon): > 100 µM
- TGI (MALME-3M melanoma): > 100 µM
- TGI (M19-MEL melanoma): > 100 µM
- TGI (XF 498 CNS): > 100 µM
- TGI (DMS 273 small cell lung): > 100 µM
- TGI (KM20L2 colon): > 100 µM

SMILES: O=C1OC(c2ccccc2)(c2ccccc2)CC1CN1CCOCC1 (stereo not given)
- TGI (SF-268 CNS): 84 µM
- TGI (DLD-1 colon): 31.8 µM
- TGI (K-562 leukemia): 78.7 µM
- TGI (DMS 114 small cell lung): 32.6 µM
- TGI (OVCAR-3 ovarian): 28.9 µM
- TGI (KM12 colon): 30.8 µM
- TGI (HOP-18 NSCLC): 27.7 µM
- TGI (RXF-631 renal): 43.8 µM
- TGI (MALME-3M melanoma): 26.6 µM
- TGI (M19-MEL melanoma): 31 µM
- TGI (LXFL 529 NSCLC): 26.9 µM
- TGI (DMS 273 small cell lung): > 100 µM
- TGI (KM20L2 colon): 36.6 µM

SMILES: N#CC(c1ccc(Cl)cc1)c1cccc(Cl)n1 (stereo not given)
- TGI (SF-268 CNS): > 100 µM
- TGI (SNB-78 CNS): > 100 µM
- TGI (DLD-1 colon): > 100 µM
- TGI (K-562 leukemia): > 100 µM
- TGI (OVCAR-3 ovarian): > 100 µM
- TGI (KM12 colon): > 100 µM
- TGI (MALME-3M melanoma): > 100 µM
- TGI (M19-MEL melanoma): > 100 µM
- TGI (XF 498 CNS): 78.7 µM
- TGI (LXFL 529 NSCLC): > 100 µM
- TGI (KM20L2 colon): > 100 µM

SMILES: CN(C)c1cccc(-c2cc(=O)c3cc4c(cc3[nH]2)OCO4)c1
- TGI (SF-268 CNS): 31.4 µM
- TGI (SNB-78 CNS): > 100 µM
- TGI (DLD-1 colon): > 100 µM
- TGI (K-562 leukemia): > 100 µM
- TGI (OVCAR-3 ovarian): 0.0575 µM
- TGI (KM12 colon): 1.46 µM
- TGI (RXF-631 renal): > 100 µM
- TGI (M19-MEL melanoma): > 100 µM
- TGI (XF 498 CNS): 7.24 µM
- TGI (LXFL 529 NSCLC): > 48.4 µM
- TGI (KM20L2 colon): 0.515 µM

SMILES: O=C(/C=C(\O)C(=O)O)/C=C(\O)c1ccccc1Cl
- TGI (SF-268 CNS): > 100 µM
- TGI (DLD-1 colon): > 100 µM
- TGI (K-562 leukemia): > 100 µM
- TGI (DMS 114 small cell lung): > 100 µM
- TGI (OVCAR-3 ovarian): > 100 µM
- TGI (KM12 colon): > 100 µM
- TGI (HOP-18 NSCLC): > 100 µM
- TGI (MALME-3M melanoma): > 100 µM
- TGI (XF 498 CNS): > 100 µM
- TGI (LXFL 529 NSCLC): > 100 µM
- TGI (DMS 273 small cell lung): > 100 µM
- TGI (KM20L2 colon): > 100 µM

SMILES: CC(C)C1=CC(=O)C(C)(C2=NC(C)(C)CO2)c2ccccc21 (stereo not given)
- TGI (SF-268 CNS): > 100 µM
- TGI (DLD-1 colon): > 100 µM
- TGI (K-562 leukemia): > 100 µM
- TGI (DMS 114 small cell lung): > 100 µM
- TGI (OVCAR-3 ovarian): > 100 µM
- TGI (KM12 colon): > 100 µM
- TGI (HOP-18 NSCLC): > 100 µM
- TGI (RXF-631 renal): > 100 µM
- TGI (MALME-3M melanoma): > 100 µM
- TGI (M19-MEL melanoma): > 100 µM
- TGI (XF 498 CNS): > 100 µM
- TGI (LXFL 529 NSCLC): > 100 µM
- TGI (DMS 273 small cell lung): > 100 µM
- TGI (KM20L2 colon): > 100 µM

SMILES: O=C(/C=C\c1cccc2ccccc12)c1ccc(Br)cc1
- TGI (SF-268 CNS): 53.1 µM
- TGI (SNB-78 CNS): 41.5 µM
- TGI (DLD-1 colon): 38.4 µM
- TGI (K-562 leukemia): 44.2 µM
- TGI (DMS 114 small cell lung): 32.2 µM
- TGI (OVCAR-3 ovarian): 34.4 µM
- TGI (KM12 colon): 28.3 µM
- TGI (HOP-18 NSCLC): 43.4 µM
- TGI (MALME-3M melanoma): 81.6 µM
- TGI (M19-MEL melanoma): 33.9 µM
- TGI (LXFL 529 NSCLC): 32.8 µM
- TGI (DMS 273 small cell lung): 34.5 µM
- TGI (KM20L2 colon): 32.2 µM
